The source made the active and inactive calls. No cut-off for these calls is given here. Square brackets hold non-standard residues; d marks the D form. Peptide text beside a SMILES is read from it. * marks the point of attachment. d(hPhe) = N[C@H](CCc1ccccc1)C(=O)O; Bn = c1ccc(C*)cc1; NHOH = ON*
How the values were obtained:
[1] = biological target: T1, Macrophage metalloelastase (Homo sapiens, UniProt P39900); assay: Binding affinity to recombinant human MMP12 catalytic domain (Gly106 to […] residues) expressed in Escherichia coli BL21 codon plus by 1D 1H aliphatic NMR spectra analysis
Target sequence in this assay (P39900 whole entry, the tested form may be a part): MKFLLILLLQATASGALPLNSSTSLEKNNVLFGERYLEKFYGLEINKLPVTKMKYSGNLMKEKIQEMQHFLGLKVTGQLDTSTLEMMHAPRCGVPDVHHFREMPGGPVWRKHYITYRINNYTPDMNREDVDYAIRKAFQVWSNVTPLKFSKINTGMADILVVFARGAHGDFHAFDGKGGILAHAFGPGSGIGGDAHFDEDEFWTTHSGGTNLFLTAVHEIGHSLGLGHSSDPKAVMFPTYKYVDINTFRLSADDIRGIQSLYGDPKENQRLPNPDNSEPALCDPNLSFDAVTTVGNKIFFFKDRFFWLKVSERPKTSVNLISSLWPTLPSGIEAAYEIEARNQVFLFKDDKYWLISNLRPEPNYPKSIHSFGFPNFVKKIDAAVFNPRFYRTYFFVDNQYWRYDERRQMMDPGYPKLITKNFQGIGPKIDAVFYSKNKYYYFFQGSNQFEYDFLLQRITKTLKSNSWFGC

[2] = biological target: T1, Macrophage metalloelastase; assay: Binding affinity to recombinant human MMP12 catalytic domain (Gly106 to […] residues) expressed in Escherichia coli BL21 codon plus by 2D [15N,1H] HMQC spectra analysis
Target sequence in this assay (P39900 whole entry, the tested form may be a part): as above

[3] = biological target: T1, Macrophage metalloelastase; assay: Inhibition of recombinant human MMP12 catalytic domain (Gly106 to […] residues) expressed in Escherichia coli BL21 codon plus using Mca-Pro-Leu-Gly-Leu-Dpa-Ala-Arg-NH2 as substrate by fluorescence assay
Target sequence in this assay (P39900 whole entry, the tested form may be a part): as above

[4] = biological target: T1, Macrophage metalloelastase; assay: Inhibition of recombinant human C-terminal DYKDDDDK tagged MMP12 expressed in mammalian expression system at 55 to 100 nM
Target sequence in this assay (P39900 106-470 limits assumed): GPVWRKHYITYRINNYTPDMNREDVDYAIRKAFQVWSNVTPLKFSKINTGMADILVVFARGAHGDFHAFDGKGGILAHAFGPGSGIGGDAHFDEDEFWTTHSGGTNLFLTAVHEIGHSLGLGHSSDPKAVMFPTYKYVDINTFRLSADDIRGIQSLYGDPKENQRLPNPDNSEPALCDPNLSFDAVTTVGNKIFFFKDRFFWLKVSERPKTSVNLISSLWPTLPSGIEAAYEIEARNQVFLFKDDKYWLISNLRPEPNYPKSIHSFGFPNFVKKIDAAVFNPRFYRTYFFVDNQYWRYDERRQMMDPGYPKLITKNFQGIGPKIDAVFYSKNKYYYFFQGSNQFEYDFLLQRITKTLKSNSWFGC

[5] = biological target: T2, Interstitial collagenase (Homo sapiens) (UniProt P03956); assay: Inhibition of MMP1 (unknown origin) at 1 uM
T2 sequence (whole entry): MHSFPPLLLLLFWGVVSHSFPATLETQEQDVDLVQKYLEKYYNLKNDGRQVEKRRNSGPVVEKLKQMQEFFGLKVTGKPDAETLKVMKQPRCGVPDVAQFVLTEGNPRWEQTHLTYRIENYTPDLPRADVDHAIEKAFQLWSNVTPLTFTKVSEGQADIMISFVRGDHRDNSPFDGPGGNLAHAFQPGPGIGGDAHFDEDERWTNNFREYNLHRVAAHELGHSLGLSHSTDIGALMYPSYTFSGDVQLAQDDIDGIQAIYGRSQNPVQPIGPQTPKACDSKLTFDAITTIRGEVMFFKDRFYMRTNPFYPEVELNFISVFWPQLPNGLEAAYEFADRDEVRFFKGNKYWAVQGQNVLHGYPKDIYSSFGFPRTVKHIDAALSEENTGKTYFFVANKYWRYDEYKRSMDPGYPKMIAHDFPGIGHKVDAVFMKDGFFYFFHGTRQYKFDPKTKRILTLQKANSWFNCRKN

[6] = biological target: Matrix metalloproteinase-9 (Homo sapiens) (UniProt P14780); assay: Inhibition of MMP9 (unknown origin) at 1 uM
Chain of Matrix metalloproteinase-9 (Homo sapiens) (P14780 whole entry): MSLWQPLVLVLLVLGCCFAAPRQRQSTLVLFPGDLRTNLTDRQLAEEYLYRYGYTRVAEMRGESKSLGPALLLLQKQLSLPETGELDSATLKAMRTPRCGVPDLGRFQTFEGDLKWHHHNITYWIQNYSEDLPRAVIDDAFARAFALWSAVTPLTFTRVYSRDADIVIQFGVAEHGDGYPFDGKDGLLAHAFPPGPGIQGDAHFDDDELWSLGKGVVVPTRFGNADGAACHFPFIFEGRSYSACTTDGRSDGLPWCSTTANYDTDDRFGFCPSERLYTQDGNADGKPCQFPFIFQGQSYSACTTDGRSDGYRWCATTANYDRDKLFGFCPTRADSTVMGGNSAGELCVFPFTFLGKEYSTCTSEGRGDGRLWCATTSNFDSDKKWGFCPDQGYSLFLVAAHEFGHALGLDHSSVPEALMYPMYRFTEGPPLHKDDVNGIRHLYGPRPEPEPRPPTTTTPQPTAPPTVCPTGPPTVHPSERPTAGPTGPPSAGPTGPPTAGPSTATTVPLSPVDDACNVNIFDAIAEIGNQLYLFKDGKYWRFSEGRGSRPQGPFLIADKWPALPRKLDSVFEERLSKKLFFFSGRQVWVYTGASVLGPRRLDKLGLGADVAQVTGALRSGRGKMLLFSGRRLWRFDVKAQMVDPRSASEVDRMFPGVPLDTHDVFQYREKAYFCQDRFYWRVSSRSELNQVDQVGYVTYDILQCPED

[7] = biological target: Matrix metalloproteinase-14 (Homo sapiens) (UniProt P50281); assay: Inhibition of MMP14 (unknown origin) at 1 uM
[8] = biological target: Stromelysin-1 (Homo sapiens) (UniProt P08254); assay: Inhibition of recombinant human C-terminal DYKDDDDK tagged MMP3 expressed in mammalian expression system at 1 uM relative to control
Chain of Stromelysin-1 (Homo sapiens) (P08254 100-477 limits assumed): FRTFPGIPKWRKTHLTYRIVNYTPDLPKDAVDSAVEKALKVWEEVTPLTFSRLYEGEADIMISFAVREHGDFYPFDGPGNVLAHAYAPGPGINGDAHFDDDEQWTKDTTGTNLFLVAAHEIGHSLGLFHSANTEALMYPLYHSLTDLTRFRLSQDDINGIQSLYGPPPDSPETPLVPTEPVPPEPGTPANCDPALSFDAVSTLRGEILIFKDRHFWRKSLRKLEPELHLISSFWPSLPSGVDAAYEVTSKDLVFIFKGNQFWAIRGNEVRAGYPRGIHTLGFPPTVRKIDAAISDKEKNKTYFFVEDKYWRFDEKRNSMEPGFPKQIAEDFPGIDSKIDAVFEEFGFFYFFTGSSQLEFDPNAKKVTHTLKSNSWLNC

[9] = biological target: Stromelysin-1 (Homo sapiens) (UniProt P08254); assay: Inhibition of recombinant human C-terminal DYKDDDDK tagged MMP3 expressed in mammalian expression system at 55 nM relative to control
[10] = biological target: T1, Macrophage metalloelastase; settings: 1 uM
Target sequence in this assay (P39900 106-470 limits assumed): as the sequence (P39900 106-470 limits assumed) above

Kd [1] [nM] | Kd [2] [nM] | IC50 [3] [nM] | inhibition [4] | inhibition [5] | inhibition [6] | inhibition [7] | inhibition [8] | inhibition [9] [%] | inhibition [10] | SMILES
< 50 | < 50 | 54.7 | Active | Active | Active | Active | 78% | 19 | – | CC(=O)N[C@@H](COCc1ccccc1)C(=O)N[C@H](CCc1ccccc1)C(=O)N[C@H](Cc1ccccc1)C(=O)NO (Ac-Ser(Bn)-[d(hPhe)]-[dF]-{NHOH})
– | – | 5.2 | – | Active | Active | Active | Active | – | Active | CNC(=O)[C@H](Cc1c[nH]c2ccccc12)NC(=O)[C@@H](CC(=O)NO)CC(C)C [ILOMASTAT]
